From article PMC9463526 (Journal of Pharmaceutical Analysis, 2022)
Like-named read-outs stand apart in the source and are kept apart here.

Tests used:
[1] = Equilibrium dialysis, fraction unbound in plasma; assay type: in vitro ADME, human; conditions: pH 7.4, 16 h equilibrium dialysis
Summary of the method: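 Human plasma dialysed against PBS pH 7.4 across a 10 kDa regenerated cellulose membrane, with equilibrium time optimized over 2–24 h at 20 and 200 nM. fu taken as post-dialysis buffer/plasma concentration ratio; triplicates, at least three repeats, recovery checked.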

[2] = Equilibrium dialysis, fraction unbound in brain homogenate; assay type: in vitro ADME, human; conditions: pH 7.4; human brain homogenate spiked at 20 and 200 nM; 16 h equilibrium dialysis; read-out: Fraction unbound (fu), Brain
[3] = Levels in intraoperatively collected CSF of GBM patients; assay type: in vivo; conditions: human, po, five GBM patients, oral LY3214996 200 mg once daily and abemaciclib 150 mg twice daily for 5 days, intraoperative CSF
Method: Blank brain and clinical brain tumor tissue homogenates were prepared at 1:9 (m/V) ratio with PBS. The samples were homogenized at a speed of 6.00 m/s for 40 s for three cycles using a Bead Ruptor Elite homogenizer (Omni International, Kennesaw, GA, USA). Plasma was used as a surrogate matrix when preparing calibration curves for brain and brain tumor homogenates and CSF as well as for the PBS fraction after sample dialysis. To minimize matrix differences, all plasma samples were spiked with PBS, while all non-plasma samples were spiked with plasma. Extraction of the analyte and IS was facilitated by protein precipitation using methanol-containing IS precipitation solution. Samples (70 μL) spiked with PBS or plasma were precipitated using 400 μL of IS precipitation solution. After centrifugation at 12,000 r/min for 10 min at 4 °C, the supernatant was transferred for LC-MS/MS analysis.
The validated bioanalytical method was employed to investigate analytes pharmacokinetics in the plasma, brain tumor, and CSF in GBM patients (ClinicalTrials.gov identifier: NCT04391595). The protocol was reviewed and approved by the Institutional Review Board of the Barrow Neurological Institute, St. Joseph's Hospital and Medical Center (Phoenix, AZ, USA). All patients enrolled in the trial provided written informed consent. […] Blood, CSF, and GBM tissue (including gadolinium-contrast enhancing and non-enhancing regions) samples were obtained intra-operatively from each patient on the […] on the planned operation day. Blood was centrifuged at 4 °C and 3,000 r/min for 10 min; plasma was subsequently collected. Brain tumors were resected 7–9 h after the last dose was administered. Once resected, the tissue samples were rinsed with PBS, paper dried, and freshly frozen in liquid nitrogen. The samples were then stored at −80 °C in a freezer for later analysis.

[4] = Analyte stability in human plasma; assay type: physicochemical; conditions: for Freeze-thaw stability, Accuracy / Freeze-thaw stability, Mean concentration / Freeze-thaw stability, Difference: 3 cycles; for Freeze-thaw stability, Difference / Benchtop stability, Difference / Processed sample stability, Difference / Autosampler stability (5 °C), Difference / Long-term stability (−20 °C), Difference: vs freshly processed QC; for Benchtop stability, Accuracy / Benchtop stability, Mean concentration / Benchtop stability, Difference: 19 h; for Processed sample stability, Accuracy / Processed sample stability, Mean concentration / Processed sample stability, Difference: 23 h; for Autosampler stability (5 °C), Accuracy / Autosampler stability (5 °C), Mean concentration / Autosampler stability (5 °C), Difference: 112 h; for Long-term stability (−20 °C), Accuracy / Long-term stability (−20 °C), Mean concentration / Long-term stability (−20 °C), Difference: 27 days
Method: The stability of the analytes was studied under various storage and processing conditions. […] Short- and long-term stability studies of all analytes were conducted in human blank plasma and brain homogenate under several storage conditions. Analyte stability in biological matrices was analyzed using freshly prepared calibration standards and QC samples. The percentage difference between the stability and freshly processed QC was also assessed. Re-injection reproducibility was evaluated within the sample stability period in the autosampler. Analytes were considered stable if the accuracy at each level was ±15.0% of the nominal value. Additionally, the difference from corresponding comparison QC samples must be within ±15.0%.

[5] = Analyte stability in brain homogenate; assay type: physicochemical, human; conditions: for Freeze-thaw stability, Accuracy / Freeze-thaw stability, Mean concentration / Freeze-thaw stability, Difference: 3 cycles; for Freeze-thaw stability, Difference / Benchtop stability, Difference / Processed sample stability, Difference / Autosampler stability (5 °C), Difference / Long-term stability (−20 °C), Difference: vs freshly processed QC; for Benchtop stability, Accuracy / Benchtop stability, Mean concentration / Benchtop stability, Difference: 6 h; for Processed sample stability, Accuracy / Processed sample stability, Mean concentration / Processed sample stability, Difference: 22 h; for Autosampler stability (5 °C), Accuracy / Autosampler stability (5 °C), Mean concentration / Autosampler stability (5 °C), Difference: 96 h; for Long-term stability (−20 °C), Accuracy / Long-term stability (−20 °C), Mean concentration / Long-term stability (−20 °C), Difference: 39 days
Summary of the method: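 Brain homogenate QC samples were held under a range of short- and long-term storage conditions, then measured using freshly prepared calibration standards and QCs. Each stability sample was compared with freshly processed QC as a percentage difference. Acceptance required accuracy within ±15.0% of nominal at every level and a difference from comparison QC samples within ±15.0%.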

## CCN1CCN(Cc2ccc(Nc3ncc(F)c(-c4cc(F)c5nc(CO)n(C(C)C)c5c4)n3)nc2)CC1 [M20]
[1]; human, plasma of five GBM patients, read-out: Fraction unbound (fu), Plasma (patients)
  fraction unbound at 16 h: 0.023
[1]; pooled human plasma spiked at 20 and 200 nM, read-out: Fraction unbound (fu), Plasma (pooled)
  fraction unbound at 16 h: 0.024
[2]
  fraction unbound at 16 h: 0.021
[3]; read-out: Level in CSF (range)
  concentration at 6 day (intra-operative): 3.1 to 58.1 nM
[3]; read-out: Median level in CSF
  concentration at 6 day (intra-operative): 12.7 nM
[4]; HQC 400.0 nM
  Freeze-thaw stability, Accuracy: 99.6%
  Freeze-thaw stability, Mean concentration: 398.6 nM
  Freeze-thaw stability, Difference: 0.3%
  Benchtop stability, Accuracy: 102.2%
  Benchtop stability, Mean concentration: 408.9 nM
  Benchtop stability, Difference: 2.8%
  Processed sample stability, Accuracy: 101.4%
  Processed sample stability, Mean concentration: 405.7 nM
  Processed sample stability, Difference: 2.7%
  Autosampler stability (5 °C), Accuracy: 95.6%
  Autosampler stability (5 °C), Mean concentration: 382.5 nM
  Autosampler stability (5 °C), Difference: −2%
  Long-term stability (−20 °C), Accuracy: 104.7%
  Long-term stability (−20 °C), Mean concentration: 418.8 nM
  Long-term stability (−20 °C), Difference: 2.7%
[4]; LQC 0.6 nM
  Freeze-thaw stability, Accuracy: 97.2%
  Freeze-thaw stability, Mean concentration: 0.583 nM
  Freeze-thaw stability, Difference: 2.9%
  Benchtop stability, Accuracy: 99.9%
  Benchtop stability, Mean concentration: 0.599 nM
  Benchtop stability, Difference: 3.5%
  Processed sample stability, Accuracy: 88.9%
  Processed sample stability, Mean concentration: 0.534 nM
  Processed sample stability, Difference: −2%
  Autosampler stability (5 °C), Accuracy: 95.1%
  Autosampler stability (5 °C), Mean concentration: 0.57 nM
  Autosampler stability (5 °C), Difference: 1.3%
  Long-term stability (−20 °C), Accuracy: 101.7%
  Long-term stability (−20 °C), Mean concentration: 0.61 nM
  Long-term stability (−20 °C), Difference: −4%
[5]; HQC 400.0 nM
  Freeze-thaw stability, Accuracy: 108.7%
  Freeze-thaw stability, Mean concentration: 434.9 nM
  Freeze-thaw stability, Difference: 1.4%
  Benchtop stability, Accuracy: 93.7%
  Benchtop stability, Mean concentration: 375.0 nM
  Benchtop stability, Difference: −4.4%
  Processed sample stability, Accuracy: 97.8%
  Processed sample stability, Mean concentration: 391.1 nM
  Processed sample stability, Difference: −0.2%
  Autosampler stability (5 °C), Accuracy: 100.3%
  Autosampler stability (5 °C), Mean concentration: 401.3 nM
  Autosampler stability (5 °C), Difference: 2.7%
  Long-term stability (−20 °C), Accuracy: 112.0%
  Long-term stability (−20 °C), Mean concentration: 448.1 nM
  Long-term stability (−20 °C), Difference: 4.5%
[5]; LQC 0.6 nM
  Freeze-thaw stability, Accuracy: 108.5%
  Freeze-thaw stability, Mean concentration: 0.651 nM
  Freeze-thaw stability, Difference: −1.5%
  Benchtop stability, Accuracy: 100.0%
  Benchtop stability, Mean concentration: 0.6 nM
  Benchtop stability, Difference: 2.3%
  Processed sample stability, Accuracy: 100.5%
  Processed sample stability, Mean concentration: 0.603 nM
  Processed sample stability, Difference: 2.7%
  Autosampler stability (5 °C), Accuracy: 101.9%
  Autosampler stability (5 °C), Mean concentration: 0.612 nM
  Autosampler stability (5 °C), Difference: 10.3%
  Long-term stability (−20 °C), Accuracy: 105.9%
  Long-term stability (−20 °C), Mean concentration: 0.635 nM
  Long-term stability (−20 °C), Difference: −3.9%
